Values after ≈ are worked out from the molar mass of the structure shown. Counter-ions that a name gives are not always drawn. Like-named read-outs stand apart in the source and are kept apart here.

For data set [1] the following is noted: flow-through cells.
Data set [2] is classed as in vitro ADME, Human. The conditions noted are these: 32° C.; for Jskin: aqueous (deionized water) saturated solution, side-by-side cells; for increase of skin flux upon stripping (fold): stripped vs heat-separated epidermis. How it is done:
(§1) Stirring was set at 200 rpm throughout the experiment. […] The samples were assayed by HPLC.
In order to determine the principal diffusional barrier of skin in transporting both base and HCl salt across the membrane, the permeating of drug through heat-separated epidermis was compared with stripped epidermis. Stripping removes most of the stratum corneum. The skin was stripped with Scotch brand cellophane tape to remove stratum corneum twenty times. Permeations of the base and the HCl salt through heat-separated epidermis and stripped epidermis from saturated aqueous solution at 32° C. are shown in Table 7.

Data set [3] is described as follows: physchem. Format: physicochemical. The conditions noted are these: for solubility thermodynamic: read-out: Cs. The procedure:
Solubility Determination: The solubility of buprenorphine base and HCl salt in various vehicles was obtained by equilibrating a large excess of solute with the vehicle in a water-jacketed glass container. Temperature was maintained at 32° C. by a constant temperature water bath and vigorous mixing with a magnetic stirring bar. Equilibrium time for all the studies was ≥48 hr. An excess of solute was always present in the slurries. Samples were taken, filtered through glass wool-tipped pipets, and an appropriate volume of filtrate was diluted with acetonitrile and assayed by HPLC. The procedure was repeated three times and an average value calculated.

The nature of data set [4]: Octanol-water partition coefficient.
Data set [5] in a line: pKa. Format: physicochemical.
For data set [6] the following is noted: cited from earlier work.
Data set [7] can be described thus: in vitro. Format: in vitro ADME, Human. The following applies: for Jskin: n=3; for Papp: human, P = J/Cs, read-out: P (permeability coefficient) (converted). How it is done: as §1

Regarding `CO[C@@]12CC[C@@]3(C[C@@H]1[C@](C)(O)C(C)(C)C)[C@H]1Cc4ccc(O)c5c4[C@@]3(CCN1CC1CC1)[C@H]2O5` [Buprenorphine HCl], the “skin flux from saturated solutions, comparison (in words)” value in data set [1] was “relatively higher penetration than the base form”. The “skin flux of HCl salt vs base (in words)” value in data set [2] (aqueous saturated solution) is on record as “higher than that of the base form”. In addition, the Jskin in data set [2] (epidermis) is recorded as 2.1 (2.4, 1.7) μg/cm^2 /h; in data set [2] (stripped epidermis), 20.5 ± 4.3 μg/cm^2 /h. Besides, the “increase of skin flux upon stripping (fold)” value in data set [2] is 10 fold. The “solubility (in words)” value in data set [3] is listed as “considerably higher than the free base form's”. Further, the Solubility (usually the dissolved amount per volume that the medium holds) in data set [3] (deionized water) is 12000 µg/mL. The solubility (usually the dissolved amount per volume that the medium holds) in data set [3] (deionized water, water) came to 12000 µg/mL; in data set [3] (propylene glycol, organic solvent or mixture), 22500 µg/mL. Also, in data set [4], the logP (as a rule, a log measure of how a compound divides between an organic and an aqueous phase) is 2.63.
Regarding `CO[C@]12CC[C@@]3(C[C@@H]1[C@](C)(O)C(C)(C)C)[C@H]1Cc4ccc(O)c5c4[C@@]3(CCN1CC1CC1)[C@H]2O5` [Buprenorphine, (5α, 7α (s))-17-(cyclopropylmethyl)-α (1,1-dimethylethyl)-4,5-epoxy18,19-dihydro-3-hydroxy-6-methoxy-α-methyl-6,14-ethenomorphinan-7-methanol], the pKa (commonly the negative logarithm of the acid dissociation constant) in data set [5] was 8.4. Moreover, the Jskin in data set [2] (epidermis) is 0.37 (0.35, 0.39) μg/cm^2 /h; in data set [2] (stripped epidermis) it was 2.2 ± 0.3 μg/cm^2 /h; in data set [7] (equilibrium pH 5.0, 32° C.), 0.59 ± 0.13 μg/cm^2 /h; in data set [7] (equilibrium pH 6.0, 32° C.) it was 0.48 ± 0.02 μg/cm^2 /h; in data set [7] (equilibrium pH 7.0, 32° C.) it was 0.14 ± 0.01 μg/cm^2 /h; in data set [7] (equilibrium pH 7.9, 32° C.) it was 0.05 ± 0.02 μg/cm^2 /h. Moreover, the Jskin in data set [7] (equilibrium pH 8.7, 32° C.) came to 0.03 ± 0.01 μg/cm^2 /h. In addition, in data set [2], the “increase of skin flux upon stripping (fold)” value turned out to be 6 fold. Moreover, the “CIT (clearance, ClT)” value in data set [6] (Daily dose […] (i.v., tid)) is 77 ± 5 L/h. The “T1/2 β” value in data set [6] (Daily dose […] (i.v., tid)) is listed as 3.1 ± 0.6 h. Also, in data set [6] (in vivo, iv), the Vdss (as a rule, a proportionality between amount in the body and measured concentration, not a real space) was 188 ± 35 L. The “MEC (analgesics)” value in data set [6] (in vivo) is 0.5 to 0.7 ng/mL. Besides, the Solubility was determined as 88600 µg/mL (≈ 189000 µM) in data set [3] (Transcutol, 32° C.) and 8 µg/mL (≈ 17.1 µM) in data set [3] (Water (deionized), 32° C.). Moreover, the solubility was 8 µg/mL (≈ 17.1 µM) in data set [3] (Water (deionized), 32° C., read-out: Solubility); 58400 µg/mL (≈ 125000 µM) in data set [3] (organic solvent or mixture, Ethanol (absolute), 32° C., read-out: Solubility); 13300 µg/mL (≈ 28400 µM) in data set [3] (organic solvent or mixture, Isopropyl myristate, 32° C., read-out: Solubility); 5100 µg/mL (≈ 10900 µM) in data set [3] (organic solvent or mixture, Propylene Glycol, 32° C., read-out: Solubility); 37900 µg/mL (≈ 81000 µM) in data set [3] (organic solvent or mixture, Propylene glycol-monolaurate, 32° C., read-out: Solubility); 88600 µg/mL (≈ 189000 µM) in data set [3] (organic solvent or mixture, Transcutol, 32° C., read-out: Solubility). Further, the solubility thermodynamic in data set [3] (equilibrium pH 5.0, 32° C.) was found to be 692 µg/mL (≈ 1480 µM); in data set [3] (equilibrium pH 6.0, 32° C.), 82 µg/mL (≈ 175 µM); in data set [3] (equilibrium pH 7.0, 32° C.), 6 µg/mL (≈ 12.8 µM); in data set [3] (equilibrium pH 7.9, 32° C.) it was 0.6 µg/mL (≈ 1.28 µM); in data set [3] (equilibrium pH 8.7, 32° C.), 0.14 µg/mL (≈ 0.299 µM). Moreover, the “solubility as a function of pH (in words)” value in data set [3] (pH 5.0 to 8.7) is listed as “decreases exponentially as the pH increases”. The same molecule showed a log partition coefficient (logP) in data set [4] of 3.09. The Papp in data set [7] (equilibrium pH 5.0, 32° C.) is 0.242 ×10⁻⁶ cm/s; in data set [7] (equilibrium pH 6.0, 32° C.), 1.64 ×10⁻⁶ cm/s; in data set [7] (equilibrium pH 7.0, 32° C.), 6.39 ×10⁻⁶ cm/s; in data set [7] (equilibrium pH 7.9, 32° C.), 23.1 ×10⁻⁶ cm/s; in data set [7] (equilibrium pH 8.7, 32° C.), 58.3 ×10⁻⁶ cm/s. Besides, in data set [7] (pH 8.7 to 5), the “skin flux as a function of pH (in words)” value is “increased as the pH was decreased to 5”. The “permeability coefficient as a function of pH (in words)” value in data set [7] (pH raised to 8.7) is reported as “increased as the pH was raised to 8.7”.

These data come from patent US5069909A, “Transdermal administration of buprenorphine” (Cygnus Therapeutic Systems, priority 1990, dated 1991).
